# From PMC6364417, “Kinase inhibitor library screening identifies synergistic drug combinations effective in sensitive and resistant melanoma cells” (Journal of Experimental & Clinical Cancer Research : CR, 2019)
# Experiments:
# Assay in all cases: Kinase inhibitor library screening, PrestoBlue cell viability, 1 or 10 μM, 72 h
# A375 cells (parental) = tested on: A375 cells (parental)
# [1] = tested on: IGR37-GP cells (Dabrafenib-resistant)
# IGR37 cells (parental) = tested on: IGR37 cells (parental)
# [2] = tested on: A375-GP cells (Dabrafenib-resistant)
# [3] = tested on: 501Mel-GP cells (Dabrafenib-resistant)
# [4] = tested on: A375-XP cells (Vemurafenib-resistant)
# 501Mel cells (parental) = tested on: 501Mel cells (parental)
# Summary of the method: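 Single-point screen at two doses over three days. Parental and BRAF-inhibitor-resistant sublines (XP: Vemurafenib; GP: Dabrafenib) were assessed by PrestoBlue viability, reported relative to untreated cells.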
# [5] = tested on: IGR37-XP cells (Vemurafenib-resistant)
# [6] = tested on: 501Mel-XP cells (Vemurafenib-resistant)
# [7] = IGR37 Parental, 1μΜ, 72 h, in %
# [8] = IGR37 Parental, 10μΜ, 72 h, in %
# [9] = 501Mel Parental, 1μΜ, 72 h, in %
# [10] = 501Mel Parental, 10μΜ, 72 h, in %
structure (smiles),measurement,setting,value
CC1(COc2ccc3c(c2)ncn3-c2ccc3cccc(N4CCC(N)CC4)c3n2)COC1 [Crenolanib (CP-868596)],"Cell viability in kinase inhibitor library screening, A375 Parental, 10μΜ","A375 cells (parental); A375 Parental, 10μΜ, 72 h",69.9
same,"Cell viability in kinase inhibitor library screening, A375 Parental, 1μΜ","A375 cells (parental); A375 Parental, 1μΜ, 72 h",109.2
same,"Cell viability in kinase inhibitor library screening, IGR37 GP, 10μΜ","[1]; IGR37 GP, 10μΜ, 72 h",84.5%
same,"Cell viability in kinase inhibitor library screening, IGR37 GP, 1μΜ","[1]; IGR37 GP, 1μΜ, 72 h, in %",104.5
same,"Cell viability in kinase inhibitor library screening, IGR37 Parental, 1μΜ",IGR37 cells (parental); [7],103.4
same,"Cell viability in kinase inhibitor library screening, IGR37 Parental, 10μΜ",IGR37 cells (parental); [8],89.7
same,"Cell viability in kinase inhibitor library screening, A375 GP, 10μΜ","[2]; A375 GP, 10μΜ, 72 h",66.5
same,"Cell viability in kinase inhibitor library screening, 501Mel GP, 1μΜ","[3]; 501Mel GP, 1μΜ, 72 h, in %",108.6
same,"Cell viability in kinase inhibitor library screening, 501Mel GP, 10μΜ","[3]; 501Mel GP, 10μΜ, 72 h, in %",51.0
same,"Cell viability in kinase inhibitor library screening, A375 XP, 1μΜ","[4]; A375 XP, 1μΜ, 72 h",108.4
same,"Cell viability in kinase inhibitor library screening, A375 XP, 10μΜ","[4]; A375 XP, 10μΜ, 72 h",78.4
same,"Cell viability in kinase inhibitor library screening, 501Mel Parental, 1μΜ",501Mel cells (parental); [9],112.4
same,"Cell viability in kinase inhibitor library screening, 501Mel Parental, 10μΜ",501Mel cells (parental); [10],12.0
same,"Cell viability in kinase inhibitor library screening, IGR37 XP, 10μΜ","[5]; IGR37 XP, 10μΜ, 72 h",30.9%
same,"Cell viability in kinase inhibitor library screening, 501Mel XP, 10μΜ","[6]; 501Mel XP, 10μΜ, 72 h, in %",0.1
O=C1NC(=O)/C(=C/c2ccc3c(c2)OC(F)(F)O3)S1 [AS-604850],"Cell viability in kinase inhibitor library screening, A375 Parental, 10μΜ","A375 cells (parental); A375 Parental, 10μΜ, 72 h",95.5
same,"Cell viability in kinase inhibitor library screening, A375 Parental, 1μΜ","A375 cells (parental); A375 Parental, 1μΜ, 72 h",104.7
same,"Cell viability in kinase inhibitor library screening, IGR37 GP, 10μΜ","[1]; IGR37 GP, 10μΜ, 72 h",98%
same,"Cell viability in kinase inhibitor library screening, IGR37 GP, 1μΜ","[1]; IGR37 GP, 1μΜ, 72 h, in %",103.0
same,"Cell viability in kinase inhibitor library screening, IGR37 Parental, 10μΜ",IGR37 cells (parental); [8],108.6
same,"Cell viability in kinase inhibitor library screening, A375 GP, 10μΜ","[2]; A375 GP, 10μΜ, 72 h",98.8
same,"Cell viability in kinase inhibitor library screening, 501Mel GP, 10μΜ","[3]; 501Mel GP, 10μΜ, 72 h, in %",91.8
same,"Cell viability in kinase inhibitor library screening, A375 XP, 1μΜ","[4]; A375 XP, 1μΜ, 72 h",109.0
same,"Cell viability in kinase inhibitor library screening, A375 XP, 10μΜ","[4]; A375 XP, 10μΜ, 72 h",106.1
same,"Cell viability in kinase inhibitor library screening, 501Mel Parental, 10μΜ",501Mel cells (parental); [10],104.4
same,"Cell viability in kinase inhibitor library screening, IGR37 XP, 10μΜ","[5]; IGR37 XP, 10μΜ, 72 h",80.4%
same,"Cell viability in kinase inhibitor library screening, IGR37 XP, 1μΜ","[5]; IGR37 XP, 1μΜ, 72 h, in %",91.9
same,"Cell viability in kinase inhibitor library screening, 501Mel XP, 10μΜ","[6]; 501Mel XP, 10μΜ, 72 h, in %",90.1
Cc1c(NC(=O)OC[C@@H]2COCCN2)cn2ncnc(Nc3ccc4c(cnn4Cc4cccc(F)c4)c3)c12 [BMS-599626 (AC480)],"cell viability, A375 Parental, 1μΜ","A375 cells (parental); A375 Parental, 1μΜ, 72 h, in %",103.3
same,"cell viability, A375 Parental, 10μΜ","A375 cells (parental); A375 Parental, 10μΜ, 72 h, in %",84.6
same,"cell viability, IGR37 GP, 10μΜ","[1]; IGR37 GP, 10μΜ, 72 h",75%
same,"cell viability, IGR37 GP, 1μΜ","[1]; IGR37 GP, 1μΜ, 72 h, in %",95.5
same,"cell viability, IGR37 Parental, 1μΜ",IGR37 cells (parental); [7],109.0
same,"cell viability, IGR37 Parental, 10μΜ",IGR37 cells (parental); [8],92.5
same,"cell viability, A375 GP, 10μΜ","[2]; A375 GP, 10μΜ, 72 h, in %",84.2
same,"cell viability, 501Mel GP, 1μΜ","[3]; 501Mel GP, 1μΜ, 72 h, in %",106.6
same,"cell viability, 501Mel GP, 10μΜ","[3]; 501Mel GP, 10μΜ, 72 h, in %",91.5
same,"cell viability, A375 XP, 1μΜ","[4]; A375 XP, 1μΜ, 72 h, in %",107.8
same,"cell viability, A375 XP, 10μΜ","[4]; A375 XP, 10μΜ, 72 h, in %",91.0
same,"cell viability, 501Mel Parental, 1μΜ",501Mel cells (parental); [9],99.1
same,"cell viability, 501Mel Parental, 10μΜ",501Mel cells (parental); [10],87.7
same,"cell viability, IGR37 XP, 10μΜ","[5]; IGR37 XP, 10μΜ, 72 h",48.2%
same,"cell viability, IGR37 XP, 1μΜ","[5]; IGR37 XP, 1μΜ, 72 h, in %",96.7
same,"cell viability, 501Mel XP, 1μΜ","[6]; 501Mel XP, 1μΜ, 72 h, in %",93.0
same,"cell viability, 501Mel XP, 10μΜ","[6]; 501Mel XP, 10μΜ, 72 h, in %",61.8
COc1cc2nccc(Oc3ccc(NC(=O)C4(C(=O)Nc5ccc(F)cc5)CC4)cc3)c2cc1OC [XL-184 free base (Cabozantinib)],cell viability (kinase inhibitor library screening),"A375 cells (parental); A375 Parental, 1μΜ, in %",98.4
same,cell viability (kinase inhibitor library screening),"A375 cells (parental); A375 Parental, 10μΜ, in %",40.5
same,cell viability (kinase inhibitor library screening),"[1]; IGR37 GP, 1μΜ, in %",96.8
same,cell viability (kinase inhibitor library screening),"[1]; IGR37 GP, 10μΜ, in %",14.8
same,cell viability (kinase inhibitor library screening),"IGR37 cells (parental); IGR37 Parental, 1μΜ, in %",94.2
same,cell viability (kinase inhibitor library screening),"IGR37 cells (parental); IGR37 Parental, 10μΜ, in %",42.6
same,cell viability (kinase inhibitor library screening),"[2]; A375 GP, 1μΜ, in %",97.8
same,cell viability (kinase inhibitor library screening),"[2]; A375 GP, 10μΜ, in %",41.3
same,cell viability (kinase inhibitor library screening),"[3]; 501Mel GP, 1μΜ, in %",76.7
same,cell viability (kinase inhibitor library screening),"[3]; 501Mel GP, 10μΜ, in %",38.8
same,cell viability (kinase inhibitor library screening),"[4]; A375 XP, 10μΜ, in %",51.6
same,cell viability (kinase inhibitor library screening),"501Mel cells (parental); 501Mel Parental, 1μΜ, in %",90.2
same,cell viability (kinase inhibitor library screening),"501Mel cells (parental); 501Mel Parental, 10μΜ, in %",73.6
same,cell viability (kinase inhibitor library screening),"[5]; IGR37 XP, 1μΜ, in %",90.6
same,cell viability (kinase inhibitor library screening),"[5]; IGR37 XP, 10μΜ, in %",3.1
same,cell viability (kinase inhibitor library screening),"[6]; 501Mel XP, 1μΜ, in %",58.9
same,cell viability (kinase inhibitor library screening),"[6]; 501Mel XP, 10μΜ, in %",24.9
N#CCNC(=O)c1ccc(-c2ccnc(Nc3ccc(N4CCOCC4)cc3)n2)cc1 [Cyt387],viability at 1 µM,"A375 cells (parental); Homo sapiens, A-375, 72 h, read-out: cell viability, A375 Parental, 1μΜ",99.6%
same,viability at 10 µM,"A375 cells (parental); Homo sapiens, A-375, 72 h, read-out: cell viability, A375 Parental, 10μΜ",48.4%
same,viability at 1 µM,"[1]; Homo sapiens, IGR-37, 72 h, read-out: cell viability, IGR37 GP, 1μΜ",94.2%
same,viability at 10 µM,"[1]; Homo sapiens, IGR-37, 72 h, read-out: cell viability, IGR37 GP, 10μΜ",25.5%
same,viability at 1 µM,"IGR37 cells (parental); Homo sapiens, IGR-37, 72 h, read-out: cell viability, IGR37 Parental, 1μΜ",103%
same,viability at 10 µM,"IGR37 cells (parental); Homo sapiens, IGR-37, 72 h, read-out: cell viability, IGR37 Parental, 10μΜ",86.1%
same,viability at 1 µM,"[2]; Homo sapiens, A-375, 72 h, read-out: cell viability, A375 GP, 1μΜ",94.4%
same,viability at 10 µM,"[2]; Homo sapiens, A-375, 72 h, read-out: cell viability, A375 GP, 10μΜ",43.9%
same,viability at 1 µM,"[3]; Homo sapiens, 72 h, read-out: cell viability, 501Mel GP, 1μΜ",105%
same,viability at 10 µM,"[3]; Homo sapiens, 72 h, read-out: cell viability, 501Mel GP, 10μΜ",50.6%
same,viability at 1 µM,"[4]; Homo sapiens, A-375, 72 h, read-out: cell viability, A375 XP, 1μΜ",95.8%
same,viability at 10 µM,"[4]; Homo sapiens, A-375, 72 h, read-out: cell viability, A375 XP, 10μΜ",64.7%
same,viability at 1 µM,"501Mel cells (parental); Homo sapiens, 72 h, read-out: cell viability, 501Mel Parental, 1μΜ",101%
same,viability at 10 µM,"501Mel cells (parental); Homo sapiens, 72 h, read-out: cell viability, 501Mel Parental, 10μΜ",60.8%
same,viability at 1 µM,"[5]; Homo sapiens, IGR-37, 72 h, read-out: cell viability, IGR37 XP, 1μΜ",106%
same,viability at 10 µM,"[5]; Homo sapiens, IGR-37, 72 h, read-out: cell viability, IGR37 XP, 10μΜ",11.7%
same,viability at 1 µM,"[6]; Homo sapiens, 72 h, read-out: cell viability, 501Mel XP, 1μΜ",115%
same,viability at 10 µM,"[6]; Homo sapiens, 72 h, read-out: cell viability, 501Mel XP, 10μΜ",35.8%
OCCn1cc(-c2ccc3c(c2)CC/C3=N\O)c(-c2ccncc2)n1 [GDC-0879],"Cell viability in kinase inhibitor library screening, A375 Parental, 10μΜ","A375 cells (parental); A375 Parental, 10μΜ, 72 h",28.9
same,"Cell viability in kinase inhibitor library screening, A375 Parental, 1μΜ","A375 cells (parental); A375 Parental, 1μΜ, 72 h",49.6
same,"Cell viability in kinase inhibitor library screening, IGR37 GP, 10μΜ","[1]; IGR37 GP, 10μΜ, 72 h",88.9%
same,"Cell viability in kinase inhibitor library screening, IGR37 GP, 1μΜ","[1]; IGR37 GP, 1μΜ, 72 h, in %",99.1
same,"Cell viability in kinase inhibitor library screening, IGR37 Parental, 1μΜ",IGR37 cells (parental); [7],66.4
same,"Cell viability in kinase inhibitor library screening, IGR37 Parental, 10μΜ",IGR37 cells (parental); [8],27.4
same,"Cell viability in kinase inhibitor library screening, A375 GP, 1μΜ","[2]; A375 GP, 1μΜ, 72 h",85.8
same,"Cell viability in kinase inhibitor library screening, A375 GP, 10μΜ","[2]; A375 GP, 10μΜ, 72 h",44.0
same,"Cell viability in kinase inhibitor library screening, 501Mel GP, 1μΜ","[3]; 501Mel GP, 1μΜ, 72 h, in %",108.3
same,"Cell viability in kinase inhibitor library screening, 501Mel GP, 10μΜ","[3]; 501Mel GP, 10μΜ, 72 h, in %",94.0
same,"Cell viability in kinase inhibitor library screening, A375 XP, 1μΜ","[4]; A375 XP, 1μΜ, 72 h",91.2
same,"Cell viability in kinase inhibitor library screening, A375 XP, 10μΜ","[4]; A375 XP, 10μΜ, 72 h",47.1
same,"Cell viability in kinase inhibitor library screening, 501Mel Parental, 1μΜ",501Mel cells (parental); [9],79.0
same,"Cell viability in kinase inhibitor library screening, 501Mel Parental, 10μΜ",501Mel cells (parental); [10],63.5
same,"Cell viability in kinase inhibitor library screening, IGR37 XP, 10μΜ","[5]; IGR37 XP, 10μΜ, 72 h",60.4%
same,"Cell viability in kinase inhibitor library screening, IGR37 XP, 1μΜ","[5]; IGR37 XP, 1μΜ, 72 h, in %",110.2
same,"Cell viability in kinase inhibitor library screening, 501Mel XP, 1μΜ","[6]; 501Mel XP, 1μΜ, 72 h, in %",97.9
same,"Cell viability in kinase inhibitor library screening, 501Mel XP, 10μΜ","[6]; 501Mel XP, 10μΜ, 72 h, in %",89.8
